Our source for the inhibition in vivo and activity values is EP0609437B1, “NOVEL SPHINGOGLYCOLIPID AND USE THEREOF” (KIRIN BEER KABUSHIKI KAISHA, priority 1991, dated 1993).

One assay relates to B16 mouse melanoma cells. Kind of assay: Anti-tumor activity against B16 mouse melanoma inoculated subcutaneously. It counts as in vivo. The following applies: Mus musculus, iv, 480 h; maximum tumor growth inhibition rate during the test period of 20 days; female BDF1 mice; 0.1 mg/kg intravenously on days 1, 5 and 9 after s.c. inoculation; read-out: TGIR (%). As for the experimental part:
Anti-tumor activity against B16 mouse melanoma inoculated subcutaneously.
Experiment was carried out with the groups of 6 female BDF1 mice (6 weeks old) purchased from Japan SLC Inc., B16 mouse melanoma cells (1 × 10^6 cells/mouse) were inoculated subcutaneously in the rear region of mice, and the sample prepared in a concentration of 0.1 mg/kg was administered intravenously at a dose of 0.2 ml/20g/mouse after 1, 5 and 9 days from inoculation (the day of inoculation being set as 0 day). The volume of the tumor at the hypodermis of the rear region [(longer diameter × shorter diameter × height)/2] was measured on 8, 12, 16 and 20 days after inoculation, and the tumor growth inhibition rate (TGIR) of each sample was determined. TGIR was calculated from the following equation: TGIR (%) = (1 - T/C) × 100 [formula] wherein C represents a tumor volume of the control group and T represents a tumor volume of the group to which the sample was administered.
In this connection, respective test runs were divided by broken lines.

The subject of assay [1] is spleen cells of C57BL/6 mouse and pancreatic cells of BALB/c mouse. Kind of assay: Lymphocyte mixed culture reaction (mouse MLR), uptake of 3H-TdR. The class given is cell-based. The settings on record: Mus musculus, Lymphocyte, 50 h, cultured for 42 hours, then 8 hours with 3H-TdR, read-out: Uptake of ^3H-TdR (% of control); for activity at 1 µg/mL: sample concentration 10^0 µg/ml; for activity at 0.1 µg/mL: sample concentration 10^-1 µg/ml; for activity at 0.01 µg/mL: sample concentration 10^-2 µg/ml. On the procedure: Experiment was carried out with the spleen cells of C57BL/6 mouse which had been treated with mitomycin C (50 µg/ml, 30 min) as the stimulator and with the […] cells of BALB/c mouse as the responder. These […] cells were suspended to a concentration of 2 × 10^6 cells/ml with a culture medium of 10% FCS RPMI 1640, respectively. These cells (50 µl/well) and a sample (10 µl/well) were plated in a 96 well round-bottomed plate and cultured for 42 hours* under the condition of 37°C and 5% CO2. ^3H-thymidine (^3H-TdR) was added in a dose of 0.5 µCi/well. After 8 hours, the cells were harvested and subjected to the measurement of the uptake of ^3H-TdR by a liquid scintillation counter.
*The samples of the compounds 32, 33 and 34 were cultured for 4 days.

Take `CCCCCCCCCCCCCCCCCCCCCCCC(=O)N[C@@H](CO[C@H]1O[C@H](CO)[C@H](O)[C@H](O)[C@H]1O)[C@H](O)CCCCCCCCCCCCCCC` [Compound 1, (2S,3R)-1-(α-D-galactopyranosyloxy)-2-tetracosanoylamino-3-octadecanol]: in the assay with B16 mouse melanoma cells, the inhibition in vivo at 0.1 mg/kg is 91.4%. In assay [1], the activity at 1 µg/mL was 359%, the activity at 0.1 µg/mL was 151% and the activity at 0.01 µg/mL was found to be 136%.

On to `CCCCCCCCCCCCCCCCCCCCCC(=O)N[C@@H](CO[C@H]1O[C@H](CO)[C@H](O)[C@H](O)[C@H]1O)[C@H](O)CCCCCCCCCCCCCCC` [Compound 2, (2S,3R)-2-docosanoylamino-1-(α-D-galactopyranosyloxy)-3-octadecanol], for which the inhibition in vivo at 0.1 mg/kg in the assay with B16 mouse melanoma cells was 53.1%. In assay [1], the activity at 1 µg/mL is 329%, the activity at 0.1 µg/mL worked out at 115% and the activity at 0.01 µg/mL stood at 103%.

Regarding `CCCCCCCCCCCCCCCCCCCC(=O)N[C@@H](CO[C@H]1O[C@H](CO)[C@H](O)[C@H](O)[C@H]1O)[C@H](O)CCCCCCCCCCCCCCC` [Compound 3, (2S,3R)-1-(α-D-galactopyranosyloxy)-2-icosanoylamino-3-octadecanol], the inhibition in vivo at 0.1 mg/kg in the assay on B16 mouse melanoma cells amounted to 56.9%. In assay [1], the activity at 1 µg/mL stood at 254%, the activity at 0.1 µg/mL came to 117% and the activity at 0.01 µg/mL was found to be 110%.

For `CCCCCCCCCCCCCCCCCC(=O)N[C@@H](CO[C@H]1O[C@H](CO)[C@H](O)[C@H](O)[C@H]1O)[C@H](O)CCCCCCCCCCCCCCC` [Compound 4, (2S,3R)-1-(α-D-galactopyranosyloxy)-2-octadecanoylamino-3-octadecanol], the inhibition in vivo at 0.1 mg/kg with B16 mouse melanoma cells turned out to be 78.1%. For the same compound, in assay [1], the activity at 1 µg/mL came out at 269%, the activity at 0.1 µg/mL is 158% and the activity at 0.01 µg/mL worked out at 134%.

As to `CCCCCCCCCCCCCCC[C@@H](O)[C@H](CO[C@H]1O[C@H](CO)[C@H](O)[C@H](O)[C@H]1O)NC(=O)CCCCCCCCC` [Compound 6, (2S,3R)-2-decanoylamino-1-(α-D-galactopyranosyloxy)-3-octadecanol], the inhibition in vivo at 0.1 mg/kg with B16 mouse melanoma cells turned out to be 73.7%. For the same compound, in assay [1], the activity at 1 µg/mL is 498%, the activity at 0.1 µg/mL came out at 190% and the activity at 0.01 µg/mL amounted to 187%.

`CCCCCCCCCCCCCCC[C@@H](O)[C@H](CO[C@H]1O[C@H](CO)[C@H](O)[C@H](O)[C@H]1O)NC(=O)CCCCCCC` [Compound 7, (2S,3R)-1-(α-D-galactopyranosyloxy)-2-octanoylamino-3-octadecanol]: the inhibition in vivo at 0.1 mg/kg with B16 mouse melanoma cells came out at 18.5%. Also, in assay [1], the activity at 1 µg/mL was 853%, the activity at 0.1 µg/mL was found to be 576% and the activity at 0.01 µg/mL turned out to be 207%.

With `CCCCCCCCCCCCCCC[C@@H](O)[C@H](CO[C@H]1O[C@H](CO)[C@H](O)[C@H](O)[C@H]1O)NC(C)=O` [Compound 8, (2S,3R)-2-acetamino-1-(α-D-galactopyranosyloxy)-3-octadecanol], the inhibition in vivo at 0.1 mg/kg in the assay with B16 mouse melanoma cells was 22.1%. Moreover, in assay [1], the activity at 1 µg/mL was determined as 297%, the activity at 0.1 µg/mL came to 189% and the activity at 0.01 µg/mL came to 96%.

As to `CCCCCCCCCCCCCCCCCCCCCCCC(=O)N[C@@H](CO[C@H]1O[C@H](CO)[C@H](O)[C@H](O)[C@H]1O)[C@H](O)CCCCCCCCCCC` [Compound 9, (2S,3R)-1-(α-D-galactopyranosyloxy)-2-tetracosanoylamino-3-tetradecanol], the inhibition in vivo at 0.1 mg/kg in the assay on B16 mouse melanoma cells was found to be 71.5%. In assay [1], the activity at 1 µg/mL came out at 460%, the activity at 0.1 µg/mL stood at 193% and the activity at 0.01 µg/mL is 176%.

Regarding `CCCCCCCCCCCCCC(=O)N[C@@H](CO[C@H]1O[C@H](CO)[C@H](O)[C@H](O)[C@H]1O)[C@H](O)CCCCCCCCCCCCC` [Compound 10, (2S,3R)-1-(α-D-galactopyranosyloxy)-2-tetradecanoylamino-3-hexadecanol], the inhibition in vivo at 0.1 mg/kg with B16 mouse melanoma cells is 76.5%. In assay [1], the activity at 1 µg/mL was 610%, the activity at 0.1 µg/mL came out at 381% and the activity at 0.01 µg/mL was 157%.
